# Results from ChEMBL document CHEMBL3132769, “Fragment growing to retain or alter the selectivity of anchored kinase hinge-binding fragments” (Medchemcomm, 2014).
# How the values were obtained:
# [1] = molecular target: Ribosomal protein S6 kinase alpha-1 (Homo sapiens) (UniProt Q15418); assay: Inhibition of human full length RSK1 expressed in baculovirus assessed as substrate phosphorylation using fluorescence-labelled peptides as substrate at 95 uM after 90 mins by microfluidic peptide phosphorylation assay
# [2] = molecular target: T1, Aurora kinase A (Homo sapiens) (UniProt O14965); assay: Inhibition of human full length AurA expressed in baculovirus assessed as substrate phosphorylation using fluorescence-labelled peptides as substrate at 95 uM after 90 mins by microfluidic peptide phosphorylation assay
# T1 sequence (whole entry): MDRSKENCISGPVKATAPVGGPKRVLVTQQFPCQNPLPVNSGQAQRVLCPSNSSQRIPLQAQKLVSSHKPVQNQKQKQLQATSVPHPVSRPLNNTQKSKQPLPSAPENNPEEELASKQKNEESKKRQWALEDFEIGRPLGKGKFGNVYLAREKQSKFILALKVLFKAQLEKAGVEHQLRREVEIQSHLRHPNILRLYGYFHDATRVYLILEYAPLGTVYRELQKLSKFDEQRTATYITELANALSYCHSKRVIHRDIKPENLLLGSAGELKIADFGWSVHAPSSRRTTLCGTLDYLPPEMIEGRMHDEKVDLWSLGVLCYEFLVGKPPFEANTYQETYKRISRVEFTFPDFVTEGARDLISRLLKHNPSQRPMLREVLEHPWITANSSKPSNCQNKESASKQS
# [3] = molecular target: Casein kinase I isoform alpha (Homo sapiens) (UniProt P48729); assay: Inhibition of human full length CSNK1A1 expressed in baculovirus assessed as substrate phosphorylation using fluorescence-labelled peptides as substrate at 0.06 uM after 90 mins by microfluidic peptide phosphorylation assay
# Casein kinase I isoform alpha (Homo sapiens), sequence (P48729 2-337 limits assumed): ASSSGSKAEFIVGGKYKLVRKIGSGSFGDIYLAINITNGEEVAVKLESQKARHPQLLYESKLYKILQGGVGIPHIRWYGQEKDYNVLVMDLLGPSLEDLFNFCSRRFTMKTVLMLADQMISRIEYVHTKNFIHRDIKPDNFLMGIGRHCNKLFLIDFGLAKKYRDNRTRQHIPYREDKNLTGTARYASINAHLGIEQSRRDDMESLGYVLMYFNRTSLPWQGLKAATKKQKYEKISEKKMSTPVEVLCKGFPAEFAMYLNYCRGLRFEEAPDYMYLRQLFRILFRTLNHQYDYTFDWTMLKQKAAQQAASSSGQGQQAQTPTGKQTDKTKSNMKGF
# [4] = molecular target: Tyrosine-protein kinase Fer (Homo sapiens) (UniProt P16591); assay: Inhibition of human FER catalytic domain expressed in baculovirus assessed as substrate phosphorylation using fluorescence-labelled peptides as substrate at 0.06 uM after 90 mins by microfluidic peptide phosphorylation assay
# [5] = species on record: Homo sapiens; assay: Inhibition of human P70S6K catalytic domain expressed in baculovirus assessed as substrate phosphorylation using fluorescence-labelled peptides as substrate at 0.06 uM after 90 mins by microfluidic peptide phosphorylation assay
# [6] = system: Tyrosine-protein kinase ABL1 (Homo sapiens), P00519 [T315I]; conditions: 0.1 uM
# [7] = molecular target: Epidermal growth factor receptor (Homo sapiens) (UniProt P00533); assay: Inhibition of human EGFR catalytic domain expressed in baculovirus assessed as substrate phosphorylation using fluorescence-labelled peptides as substrate at 420 uM after 90 mins by microfluidic peptide phosphorylation assay
# Epidermal growth factor receptor (Homo sapiens), sequence (P00533 whole entry, the tested form may be a part): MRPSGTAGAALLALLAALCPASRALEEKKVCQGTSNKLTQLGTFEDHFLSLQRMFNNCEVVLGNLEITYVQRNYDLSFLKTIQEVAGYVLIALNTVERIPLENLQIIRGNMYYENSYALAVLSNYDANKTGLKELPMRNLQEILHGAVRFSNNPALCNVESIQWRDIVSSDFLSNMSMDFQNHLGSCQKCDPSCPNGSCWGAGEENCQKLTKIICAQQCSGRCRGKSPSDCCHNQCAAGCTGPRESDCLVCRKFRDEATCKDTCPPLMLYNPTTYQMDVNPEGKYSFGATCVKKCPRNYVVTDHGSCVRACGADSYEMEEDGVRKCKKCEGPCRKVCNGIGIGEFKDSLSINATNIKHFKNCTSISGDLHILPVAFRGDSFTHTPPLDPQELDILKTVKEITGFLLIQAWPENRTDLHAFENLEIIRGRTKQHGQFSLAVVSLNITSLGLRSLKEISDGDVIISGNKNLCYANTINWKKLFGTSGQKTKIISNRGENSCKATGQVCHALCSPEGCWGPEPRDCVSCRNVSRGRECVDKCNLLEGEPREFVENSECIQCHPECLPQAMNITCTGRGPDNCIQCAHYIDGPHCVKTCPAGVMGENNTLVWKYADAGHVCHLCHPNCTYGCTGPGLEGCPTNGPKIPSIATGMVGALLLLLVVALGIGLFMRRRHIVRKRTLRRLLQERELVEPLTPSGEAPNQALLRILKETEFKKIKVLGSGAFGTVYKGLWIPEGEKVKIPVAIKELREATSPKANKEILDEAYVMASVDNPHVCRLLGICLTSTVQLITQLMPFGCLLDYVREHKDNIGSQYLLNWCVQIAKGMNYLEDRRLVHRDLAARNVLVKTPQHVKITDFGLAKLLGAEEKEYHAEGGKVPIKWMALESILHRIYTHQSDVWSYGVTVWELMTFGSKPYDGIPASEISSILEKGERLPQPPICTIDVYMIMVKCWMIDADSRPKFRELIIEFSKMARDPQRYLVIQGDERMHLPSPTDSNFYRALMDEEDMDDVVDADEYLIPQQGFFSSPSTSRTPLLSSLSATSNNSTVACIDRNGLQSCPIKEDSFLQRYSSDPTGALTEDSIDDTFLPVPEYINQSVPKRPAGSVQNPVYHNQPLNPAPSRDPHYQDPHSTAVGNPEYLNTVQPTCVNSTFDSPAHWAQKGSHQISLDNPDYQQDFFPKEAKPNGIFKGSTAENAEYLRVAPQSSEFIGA
# [8] = molecular target: Fibroblast growth factor receptor 2 (Homo sapiens) (UniProt P21802); assay: Inhibition of human FGFR2 catalytic domain expressed in baculovirus assessed as substrate phosphorylation using fluorescence-labelled peptides as substrate at 420 uM after 90 mins by microfluidic peptide phosphorylation assay
# [9] = molecular target: RAC-alpha serine/threonine-protein kinase (Homo sapiens) (UniProt P31749); assay: Inhibition of human AKT1 catalytic domain expressed in baculovirus assessed as substrate phosphorylation using fluorescence-labelled peptides as substrate at 420 uM after 90 mins by microfluidic peptide phosphorylation assay
# RAC-alpha serine/threonine-protein kinase (Homo sapiens), sequence (P31749 whole entry, the tested form may be a part): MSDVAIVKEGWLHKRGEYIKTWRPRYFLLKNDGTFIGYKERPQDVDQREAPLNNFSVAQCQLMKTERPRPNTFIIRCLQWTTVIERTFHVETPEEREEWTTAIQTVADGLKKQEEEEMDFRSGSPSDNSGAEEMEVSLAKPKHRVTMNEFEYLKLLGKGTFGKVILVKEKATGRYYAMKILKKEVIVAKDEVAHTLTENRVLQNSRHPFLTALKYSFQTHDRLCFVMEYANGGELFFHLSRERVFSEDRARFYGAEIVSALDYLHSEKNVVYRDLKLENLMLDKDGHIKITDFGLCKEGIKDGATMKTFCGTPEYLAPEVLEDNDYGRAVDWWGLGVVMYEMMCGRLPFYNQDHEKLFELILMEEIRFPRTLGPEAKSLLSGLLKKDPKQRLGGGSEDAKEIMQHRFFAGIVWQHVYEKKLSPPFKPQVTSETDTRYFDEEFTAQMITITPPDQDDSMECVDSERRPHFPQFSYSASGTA
# [10] = molecular target: Platelet-derived growth factor receptor alpha (Homo sapiens) (UniProt P16234); assay: Inhibition of human PDGFR alpha catalytic domain expressed in baculovirus assessed as substrate phosphorylation using fluorescence-labelled peptides as substrate at 70 uM after 90 mins by microfluidic peptide phosphorylation assay
# Platelet-derived growth factor receptor alpha (Homo sapiens), sequence (P16234 whole entry, the tested form may be a part): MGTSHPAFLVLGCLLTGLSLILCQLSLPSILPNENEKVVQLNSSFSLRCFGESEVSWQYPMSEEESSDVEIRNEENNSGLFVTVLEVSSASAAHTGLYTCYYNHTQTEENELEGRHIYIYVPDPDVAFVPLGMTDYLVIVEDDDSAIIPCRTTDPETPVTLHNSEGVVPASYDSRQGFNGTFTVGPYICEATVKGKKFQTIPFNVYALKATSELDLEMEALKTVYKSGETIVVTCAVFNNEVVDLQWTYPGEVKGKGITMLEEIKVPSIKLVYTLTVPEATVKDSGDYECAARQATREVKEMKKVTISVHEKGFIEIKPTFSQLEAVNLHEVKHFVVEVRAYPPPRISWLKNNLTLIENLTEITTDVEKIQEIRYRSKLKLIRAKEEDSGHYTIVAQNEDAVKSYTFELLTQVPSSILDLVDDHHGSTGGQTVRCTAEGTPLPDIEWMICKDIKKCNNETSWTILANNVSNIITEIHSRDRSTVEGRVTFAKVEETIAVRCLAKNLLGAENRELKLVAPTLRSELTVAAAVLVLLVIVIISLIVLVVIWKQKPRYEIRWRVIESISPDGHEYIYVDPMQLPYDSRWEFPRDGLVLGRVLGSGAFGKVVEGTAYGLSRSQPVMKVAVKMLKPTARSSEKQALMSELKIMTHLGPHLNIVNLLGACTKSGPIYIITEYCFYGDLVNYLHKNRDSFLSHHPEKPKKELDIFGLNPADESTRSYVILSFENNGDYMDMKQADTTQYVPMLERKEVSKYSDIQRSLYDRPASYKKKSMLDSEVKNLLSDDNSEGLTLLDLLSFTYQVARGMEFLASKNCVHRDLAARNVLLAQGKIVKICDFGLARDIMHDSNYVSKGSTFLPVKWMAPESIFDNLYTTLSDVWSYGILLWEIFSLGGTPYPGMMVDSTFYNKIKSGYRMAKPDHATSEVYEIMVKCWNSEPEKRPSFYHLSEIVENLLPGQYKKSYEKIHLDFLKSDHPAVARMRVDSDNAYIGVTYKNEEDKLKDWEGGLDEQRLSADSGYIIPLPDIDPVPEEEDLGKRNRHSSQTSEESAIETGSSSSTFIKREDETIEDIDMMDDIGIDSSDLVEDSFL
# [11] = molecular target: T2, Serine/threonine-protein kinase D2 (Homo sapiens) (UniProt Q9BZL6); assay: Inhibition of human full length PKD2 expressed in baculovirus assessed as substrate phosphorylation using fluorescence-labelled peptides as substrate at 70 uM after 90 mins by microfluidic peptide phosphorylation assay
# T2 sequence (whole entry): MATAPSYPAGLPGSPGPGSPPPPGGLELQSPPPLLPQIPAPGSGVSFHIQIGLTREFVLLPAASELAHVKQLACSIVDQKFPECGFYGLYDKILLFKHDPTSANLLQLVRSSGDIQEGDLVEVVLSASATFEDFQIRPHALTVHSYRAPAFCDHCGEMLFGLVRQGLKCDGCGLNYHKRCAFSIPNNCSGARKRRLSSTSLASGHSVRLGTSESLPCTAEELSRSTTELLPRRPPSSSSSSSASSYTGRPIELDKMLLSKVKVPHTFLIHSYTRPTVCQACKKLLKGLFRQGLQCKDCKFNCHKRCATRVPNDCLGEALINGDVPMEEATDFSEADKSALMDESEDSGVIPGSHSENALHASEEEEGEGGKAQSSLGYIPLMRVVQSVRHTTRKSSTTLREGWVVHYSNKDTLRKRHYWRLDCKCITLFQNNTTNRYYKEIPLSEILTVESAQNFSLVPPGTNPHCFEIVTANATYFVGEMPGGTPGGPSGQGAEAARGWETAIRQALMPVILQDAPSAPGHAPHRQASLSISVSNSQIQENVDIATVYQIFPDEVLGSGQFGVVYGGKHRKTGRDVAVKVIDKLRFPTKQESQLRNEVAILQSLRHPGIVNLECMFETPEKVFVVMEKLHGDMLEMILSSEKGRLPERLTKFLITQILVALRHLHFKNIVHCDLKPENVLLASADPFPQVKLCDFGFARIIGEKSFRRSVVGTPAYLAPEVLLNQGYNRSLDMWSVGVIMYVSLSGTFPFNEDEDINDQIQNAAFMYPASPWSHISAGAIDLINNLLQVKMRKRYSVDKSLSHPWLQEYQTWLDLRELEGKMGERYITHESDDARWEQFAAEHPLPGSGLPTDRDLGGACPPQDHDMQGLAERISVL
# [12] = molecular target: Calcium/calmodulin-dependent protein kinase type II subunit delta (Homo sapiens) (UniProt Q13557); assay: Inhibition of human full length CAMK2D expressed in baculovirus assessed as substrate phosphorylation using fluorescence-labelled peptides as substrate at 0.2 uM after 90 mins by microfluidic peptide phosphorylation assay
# [13] = species on record: Homo sapiens; assay: Inhibition of human P70S6K catalytic domain expressed in baculovirus assessed as substrate phosphorylation using fluorescence-labelled peptides as substrate at 2 uM after 90 mins by microfluidic peptide phosphorylation assay
# [14] = system: Fibroblast growth factor receptor 2 (Homo sapiens), P21802 [N549H]; assay: Inhibition of human FGFR2 N549H mutant catalytic domain expressed in baculovirus assessed as substrate phosphorylation using fluorescence-labelled peptides as substrate at 2 uM after 90 mins by microfluidic peptide phosphorylation assay
# Fibroblast growth factor receptor 2 (Homo sapiens), P21802 [N549H], sequence (P21802 whole entry N549H, the tested form may be a part): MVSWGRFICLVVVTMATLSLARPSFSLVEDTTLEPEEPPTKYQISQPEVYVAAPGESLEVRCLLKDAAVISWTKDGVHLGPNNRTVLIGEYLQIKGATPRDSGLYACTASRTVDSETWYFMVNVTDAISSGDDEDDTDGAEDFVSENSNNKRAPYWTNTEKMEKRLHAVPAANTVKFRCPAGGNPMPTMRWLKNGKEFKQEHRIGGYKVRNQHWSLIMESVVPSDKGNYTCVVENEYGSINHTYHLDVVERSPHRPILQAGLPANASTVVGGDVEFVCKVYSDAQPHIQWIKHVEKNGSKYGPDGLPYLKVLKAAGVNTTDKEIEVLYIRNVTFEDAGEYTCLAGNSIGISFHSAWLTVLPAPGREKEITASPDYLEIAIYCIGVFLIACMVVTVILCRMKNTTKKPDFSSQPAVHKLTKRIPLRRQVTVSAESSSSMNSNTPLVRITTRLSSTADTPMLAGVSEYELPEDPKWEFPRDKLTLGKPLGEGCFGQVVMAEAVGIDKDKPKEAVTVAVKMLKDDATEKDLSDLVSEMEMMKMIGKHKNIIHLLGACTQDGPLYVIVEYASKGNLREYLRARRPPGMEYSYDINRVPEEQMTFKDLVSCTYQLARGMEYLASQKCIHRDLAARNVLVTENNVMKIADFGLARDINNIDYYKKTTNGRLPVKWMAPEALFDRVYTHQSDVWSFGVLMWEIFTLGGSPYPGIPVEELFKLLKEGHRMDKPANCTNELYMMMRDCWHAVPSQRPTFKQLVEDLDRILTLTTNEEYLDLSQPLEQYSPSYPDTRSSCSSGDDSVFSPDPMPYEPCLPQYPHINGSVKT
# [15] = molecular target: Ribosomal protein S6 kinase alpha-3 (Homo sapiens) (UniProt P51812); assay: Inhibition of human full length RSK2 expressed in baculovirus assessed as substrate phosphorylation using fluorescence-labelled peptides as substrate at 8 uM after 90 mins by microfluidic peptide phosphorylation assay
# Ribosomal protein S6 kinase alpha-3 (Homo sapiens), sequence (P51812 whole entry, the tested form may be a part): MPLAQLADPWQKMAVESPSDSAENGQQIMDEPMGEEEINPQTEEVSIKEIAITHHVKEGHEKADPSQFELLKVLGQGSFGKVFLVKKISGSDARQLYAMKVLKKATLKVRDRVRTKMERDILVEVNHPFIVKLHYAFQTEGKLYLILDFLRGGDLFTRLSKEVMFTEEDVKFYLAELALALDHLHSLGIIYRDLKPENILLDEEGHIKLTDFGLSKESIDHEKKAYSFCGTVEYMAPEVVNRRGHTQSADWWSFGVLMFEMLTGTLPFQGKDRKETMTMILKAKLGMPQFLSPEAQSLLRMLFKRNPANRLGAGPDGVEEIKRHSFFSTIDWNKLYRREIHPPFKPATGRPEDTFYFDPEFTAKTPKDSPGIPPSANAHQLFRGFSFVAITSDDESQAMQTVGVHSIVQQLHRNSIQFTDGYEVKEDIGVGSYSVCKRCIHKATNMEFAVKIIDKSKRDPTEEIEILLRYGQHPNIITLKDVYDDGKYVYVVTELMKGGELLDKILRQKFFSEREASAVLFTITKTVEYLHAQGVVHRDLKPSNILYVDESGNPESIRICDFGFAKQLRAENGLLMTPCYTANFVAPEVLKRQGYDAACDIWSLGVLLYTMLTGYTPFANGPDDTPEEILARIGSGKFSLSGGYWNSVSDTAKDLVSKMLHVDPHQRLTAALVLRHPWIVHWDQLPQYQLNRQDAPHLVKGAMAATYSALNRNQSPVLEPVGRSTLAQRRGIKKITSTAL
# [16] = molecular target: RAC-alpha serine/threonine-protein kinase (Homo sapiens) (UniProt P31749); assay: Inhibition of human AKT1 catalytic domain expressed in baculovirus assessed as substrate phosphorylation using fluorescence-labelled peptides as substrate at 8 uM after 90 mins by microfluidic peptide phosphorylation assay
# [17] = molecular target: Rho-associated protein kinase 2 (Homo sapiens) (UniProt O75116); assay: Inhibition of human ROCK2 catalytic domain expressed in baculovirus assessed as substrate phosphorylation using fluorescence-labelled peptides as substrate at 8 uM after 90 mins by microfluidic peptide phosphorylation assay
smiles,measurement,setting,value
NCCc1ccc(-c2ncnc3[nH]cnc23)cc1,inhibition,[1],83.5%
same,inhibition,[2],85%
NC1(Cc2ccc(Cl)cc2)CCN(c2ncnc3[nH]ccc23)CC1,inhibition,[3],1%
same,inhibition,[4],4%
same,inhibition,[5],0%
C[C@H](CN(C)C)Oc1nc(Nc2cc3cccc(Cl)c3cn2)cnc1C#N,inhibition,[6],0%
c1nc(N2CCOCC2)c2nc[nH]c2n1,inhibition,[7],29%
same,inhibition,[8],93%
same,inhibition,[9],61.5%
CNCc1ccc(-c2ncnc3[nH]cnc23)cc1,inhibition,[10],16.5%
same,inhibition,[11],77.5%
Clc1ccc(C2(c3ccc(-c4ncnc5[nH]cnc45)cc3)CCNCC2)cc1,inhibition,[12],16%
NC1CCN(c2ncnc3[nH]ccc23)CC1,inhibition,[13],3.5%
same,inhibition,[14],1%
NCC1CCN(c2ncnc3[nH]ccc23)CC1,inhibition,[15],32%
same,inhibition,[16],96%
same,inhibition,[17],89.5%
